Measurements taken from ChEMBL document CHEMBL1125044, “1,2,4-Diazaphosphole nucleosides. Synthesis, structure, and antitumor activity of nucleosides with a lambda 3 phosphorus atom” (J Med Chem, 1990).
Active and inactive are the calls of the source. The rule behind the calls is not given here.

Experiments:
Mus musculus [1] = test: Compound was tested against L1210 infected BDF1 mice at 480 mg/kg expressed as percent increase in life span; format: functional
Mus musculus [2] = organism: Mus musculus; test: Compound was tested against L1210 infected BDF1 mice expressed as weight change at 72 hour; format: functional
Mus musculus [3] = organism: Mus musculus; test: Compound was tested against L1210 infected BDF1 mice expressed as weight change at 24 hour; format: functional
[4] = Lethal dose in L1210-bearing female BDF1 mice; format: toxicity, organism-based; conditions: BDF1, mouse, in vivo
[5] = In vitro antiviral activity against number of DNA virus was reported; Inactive; format: functional
[6] = In vitro antiviral activity against number of RNA virus was reported; Inactive; format: functional

SMILES	ILS at 480 mg/kg (Mus musculus [1]) [%]	Weight change (Mus musculus [2]) [g]	Weight change (Mus musculus [3]) [g]	LD50 [4] [mg/kg]	Activity [5]	Activity [6]
NC(=S)c1nn(C2O[C@H](CO)[C@@H](O)[C@H]2O)cp1 (stereo partly specified)	25	-0.67	-1.67			
NC(=O)c1nn(C2O[C@H](CO)[C@@H](O)[C@H]2O)cp1 (stereo partly specified)				480	inactive	inactive
